Data from BindingDB's records for doi:10.1016/j.bmcl.2007.04.071 (Berlex Biosciences, 2007).

Target: T1, 3-phosphoinositide-dependent protein kinase 1 (Homo sapiens, UniProt O15530)
T1 sequence (O15530 whole entry): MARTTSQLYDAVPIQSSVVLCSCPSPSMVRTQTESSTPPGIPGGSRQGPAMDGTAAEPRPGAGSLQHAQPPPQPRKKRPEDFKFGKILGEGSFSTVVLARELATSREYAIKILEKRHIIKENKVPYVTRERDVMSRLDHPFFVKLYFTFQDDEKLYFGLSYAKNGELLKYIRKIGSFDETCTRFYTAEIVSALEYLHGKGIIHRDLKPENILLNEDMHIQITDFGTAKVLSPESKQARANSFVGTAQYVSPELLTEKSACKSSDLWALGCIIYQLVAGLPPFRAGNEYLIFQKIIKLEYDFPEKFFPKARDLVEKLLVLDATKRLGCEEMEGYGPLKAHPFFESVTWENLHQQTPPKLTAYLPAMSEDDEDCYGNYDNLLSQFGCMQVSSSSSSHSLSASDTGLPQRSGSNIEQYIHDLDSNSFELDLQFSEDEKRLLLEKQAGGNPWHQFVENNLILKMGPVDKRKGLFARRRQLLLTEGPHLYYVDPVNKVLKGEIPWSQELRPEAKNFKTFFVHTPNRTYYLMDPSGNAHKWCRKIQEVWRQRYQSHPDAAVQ
Test: PDK1-mediated AKT2 Activation Assay (cAKT2 33P-SPA)
Details: pH 7.2; 22 °C

- IC50: 0.2 µM
SMILES: O=C1Nc2ccc(-c3nnn[nH]3)cc2C1=Cc1ccc[nH]1 [(3Z)-3-(1H-pyrrol-2-ylmethylidene)-5-(1H-1,2,3,4-tetrazol-5-yl)-2,3-dihydro-1H-indol-2-one]
